± gives the standard deviation of the averaged measurements.
Legend:
Assay in all cases: level (log10 ratio to DMSO vehicle control); higher = higher biomarker level / cell amount than vehicle control
Settings in all cases: in DMSO
[1] = compound: O=C(O)C(F)(F)C(F)(F)C(F)(F)OC(F)(C(F)(F)F)C(F)(F)F [Perfluoro-4-isopropoxybutanoic acid]
Description: (§1)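 BioMAP Diversity Plus panel of 12 human primary cell co-culture systems (3C, 4H, LPS, SAg, BT, BF4T, BE3C, CASM3C, HDF3CGF, KF3CT, MyoF, Mphg). Compounds were added 1 h before stimulation and left for 24 h (MyoF 48 h; BT 72 h for soluble read-outs or 6 d for IgG). Biomarkers were read by ELISA, cytotoxicity by SRB, PBMC viability and proliferation by Alamar Blue. Each well value was divided by the mean of 8 DMSO control wells on the same plate and log10 transformed; duplicate blinded samples were tested at 4 concentrations.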

[2] = compound: NC(=O)C(F)(F)C(F)(F)F [Pentafluoropropionamide]
Description: as §1

[3] = compound: O=S(=O)(O)C(F)(F)C(F)(F)C(F)(F)C(F)(F)C(F)(F)C(F)(F)F [Perfluorohexanesulfonic acid]
Description: as §1

[4] = compound: OCCC(F)(F)C(F)(F)C(F)(F)C(F)(F)C(F)(F)C(F)(F)F [6:2 Fluorotelomer alcohol]
Description: as §1

[5] = compound: O=C(O)C(F)(F)C(F)(F)OC(F)(F)F [Perfluoro-3-methoxypropanoic acid]
Description: as §1

[6] = compound: FC(F)(F)C(F)(C(F)(F)F)C(F)(F)C(F)(F)CC1CO1 [3-(Perfluoro-3-methylbutyl)-1,2-propenoxide]
Description: as §1

[7] = compound: O=C(O)C(F)(F)C(F)(F)C(F)(F)C(F)(F)C(F)(F)C(F)(F)C(F)(F)C(F)F [9-H-Perfluorononanoic acid]
Description: as §1

Test System	level (log10) ([1]; 6700 nM)	level (log10) ([1]; 20000 nM)	level (log10) ([1]; 60000 nM)	level (log10) ([2]; 6700 nM)	level (log10) ([2]; 20000 nM)	level (log10) ([2]; 60000 nM)	level (log10) ([3]; 6700 nM)	level (log10) ([3]; 20000 nM)	level (log10) ([3]; 60000 nM)	level (log10) ([4]; 6700 nM)	level (log10) ([4]; 20000 nM)	level (log10) ([5]; 6700 nM)	level (log10) ([5]; 20000 nM)	level (log10) ([5]; 60000 nM)	level (log10) ([6]; 6700 nM)	level (log10) ([6]; 20000 nM)	level (log10) ([7]; 6700 nM)	level (log10) ([7]; 20000 nM)	level (log10) ([7]; 60000 nM)
LPS:CD69	-0.0005 ± 0.023	-0.006 ± 0.0042	-0.0145 ± 0.046	-0.03 ± 0.0014	-0.0255 ± 0.016	-0.01 ± 0.0028	-0.0125 ± 0.049	-0.0035 ± 0.047	-0.036 ± 0.052	-0.006 ± 0.04	0	-0.0065 ± 0.013	-0.02 ± 0.013	0.013 ± 0.025	-0.023 ± 0.027	-0.004 ± 0.0057	-0.018 ± 0.0028	-0.0275 ± 0.039	-0.0575 ± 0.0035
LPS:CD142/Tissue Factor	0.019 ± 0.033	0.0165 ± 0.011	-0.016 ± 0.1	0.0095 ± 0.015	-0.022 ± 0.034	-0.0425 ± 0.046	0.0055 ± 0.023	0.001 ± 0.0028	0 ± 0.028	0.0285 ± 0.026	-0.007 ± 0.013	0.0095 ± 0.013	0.032 ± 0.021	0.0125 ± 0.073	-0.017 ± 0.088	0.031 ± 0.096	-0.03 ± 0.021	-0.024 ± 0.011	0.0785 ± 0.039
3C:CXCL9/MIG	-0.0015 ± 0.0078	-0.0085 ± 0.0021	0.0105 ± 0.0035	-0.0025 ± 0.0078	-0.011 ± 0.0071	0.0085 ± 0.012	0.0015 ± 0.0035	0.0035 ± 0.0092	0.007 ± 0.0085	0.0045 ± 0.005	-0.0145 ± 0.0035	0.0025 ± 0.0021	-0.0065 ± 0.0078	0.0115 ± 0.00071	-0.011 ± 0.0042	-0.0025 ± 0.005	-0.013 ± 0.0071	0.0095 ± 0.00071	0.0045 ± 0.0021
BE3C:EGFR	0.012 ± 0.027	0.0075 ± 0.005	0.044 ± 0.042	-0.019 ± 0.016	-0.0095 ± 0.015	-0.0235 ± 0.04	-0.005	-0.0085 ± 0.0078	0.001 ± 0.0028	0.004 ± 0.051	-0.0025 ± 0.049	-0.0075 ± 0.05	0.0065 ± 0.018	0.0335 ± 0.04	-0.01 ± 0.013	-0.023 ± 0.013	-0.028 ± 0.0099	-0.022 ± 0.021	-0.0425 ± 0.023
SAg:CCL2/MCP-1	-0.007 ± 0.021	0.006 ± 0.016	0.039 ± 0.02	-0.012 ± 0.0014	-0.018 ± 0.0099	-0.0095 ± 0.016	0.015 ± 0.0071	0.0095 ± 0.018	0.017	-0.0165 ± 0.0035	-0.0115 ± 0.00071	-0.007 ± 0.013	-0.0075 ± 0.0092	-0.0035 ± 0.0078	-0.0225 ± 0.039	0.004 ± 0.0085	-0.009 ± 0.014	-0.022 ± 0.0014	0.0245 ± 0.04
BF4T:MMP-3	-0.0095 ± 0.013	-0.0015 ± 0.029	0.042 ± 0.1	-0.024 ± 0.011	-0.007	-0.003 ± 0.033	0.021 ± 0.042	0.0195 ± 0.035	0.0605 ± 0.053	-0.004 ± 0.0042	-0.0055 ± 0.0035	-0.001 ± 0.024	0.0105 ± 0.0035	0.043 ± 0.016	0.0005 ± 0.018	-0.011 ± 0.0028	-0.0115 ± 0.03	-0.0025 ± 0.00071	0.075 ± 0.0071
BT:Secreted IgG	-0.0115 ± 0.0035	-0.0005 ± 0.03	-0.059 ± 0.013	0.0065 ± 0.039	-0.0075 ± 0.046	0.0155 ± 0.0064	-0.0295 ± 0.0064	0.0015 ± 0.0064	0.0085 ± 0.0035	0.02	0.0195 ± 0.0035	-0.0085 ± 0.0021	0.01 ± 0.018	0.0155 ± 0.0035	-0.007 ± 0.064	0.016 ± 0.09	0.038 ± 0.0071	-0.011 ± 0.031	0.0485 ± 0.019
LPS:CD141/Thrombomodulin	0.0205 ± 0.012	0.016 ± 0.013	0.0225 ± 0.0035	-0.0385 ± 0.00071	-0.005 ± 0.0028	-0.01 ± 0.0014	-0.007 ± 0.0057	-0.0065 ± 0.013	-0.008 ± 0.0014	0.002 ± 0.024	0.013 ± 0.0042	0.0175 ± 0.036	0.0075 ± 0.022	0.0255 ± 0.028	0.0355 ± 0.0035	0.019 ± 0.034	0.015 ± 0.017	0.018 ± 0.0057	0.027 ± 0.03
BE3C:CXCL10/IP-10	0.003 ± 0.0014	0.0135 ± 0.00071	0.0155 ± 0.015	-0.008 ± 0.0085	0 ± 0.0028	-0.0015 ± 0.0064	-0.0035 ± 0.00071	-0.01 ± 0.0071	-0.0405 ± 0.016	-0.0035 ± 0.005	0.006 ± 0.0028	0.0025 ± 0.005	-0.0095 ± 0.0035	0.0025 ± 0.011	-0.0115 ± 0.023	-0.0065 ± 0.011	-0.021 ± 0.0057	-0.04 ± 0.0042	-0.149 ± 0.04
BF4T:MMP-9	0.012 ± 0.0057	0.0275 ± 0.0064	0.058 ± 0.034	0.02 ± 0.024	-0.001 ± 0.021	0.027 ± 0.0042	0.006 ± 0.065	0.0115 ± 0.073	0.0135 ± 0.056	-0.0025 ± 0.011	-0.0105 ± 0.00071	-0.002 ± 0.0028	-0.0125 ± 0.011	0.032 ± 0.013	0.0085 ± 0.005	-0.0125 ± 0.026	-0.073 ± 0.045	-0.039 ± 0.0071	-0.004 ± 0.0014
BF4T:CD90	-0.002 ± 0.0057	-0.025 ± 0.0028	-0.0075 ± 0.012	-0.0025 ± 0.0064	0.0005 ± 0.0064	-0.0045 ± 0.015	-0.001 ± 0.014	-0.0115 ± 0.0078	-0.0305 ± 0.0064	-0.0035 ± 0.0021	-0.0165 ± 0.011	-0.012 ± 0.021	-0.0165 ± 0.013	-0.0095 ± 0.0035	-0.0175 ± 0.00071	-0.0165 ± 0.03	-0.0705 ± 0.021	-0.0605 ± 0.013	-0.0685 ± 0.015

From the supplement of paper PMC10331698
